According to patent US8846935B2, “Indazoles” (GlaxoSmithKline LLC, priority 2010, dated 2014):
Where a name gives a salt, the structure may show the parent alone.

Molecular target: T1, EZH2 within the PRC2 complex (Homo sapiens, UniProt Q15910)
T1 construct: FLAG; made in house; host or cells: Sf9 cells
Assay: EZH2 methyltransferase scintillation proximity assay (SPA)
Format: biochemical
Conditions: methyltransferase activity of EZH2 in human PRC2 complex, 3H-SAM, HeLa mononucleosomes
Protocol: Compounds contained herein were evaluated for their ability to inhibit the methyltransferase activity of EZH2 within the PRC2 complex. Human PRC2 complex was prepared by co-expressing each of the 5 member proteins (FLAG-EZH2, EED, SUZ12, RbAp48, AEBP2) in Sf9 cells followed by co-purification. Enzyme activity was measured in a scintillation proximity assay (SPA) where a tritiated methyl group is transferred from 3H-SAM to a lysine residue on Histone H3 of a mononucleosome, purified from HeLa cells. Mononucleosomes were captured on SPA beads and the resulting signal is read on a ViewLux plate reader.
Part A. Compound Preparation
• 1. Prepare 10 mM stock of compounds from solid in 100% DMSO. • 2. Set up an 11-point serial dilution (1:3 dilution, top concentration 10 mM) in 100% DMSO for each test compound in a 384 well plate leaving columns 6 and 18 for DMSO controls. • 3. Dispense 100 nL of compound from the dilution plate into reaction plates (Grenier Bio-One, 384-well, Cat#784075). Part B. Reagent Preparation Prepare the following solutions: • 1. 50 mM Tris-HCl, pH 8: Per 1 L of base buffer, combine 1 M Tris-HCl, pH 8 (50 mL) and distilled water (950 mL). • 2. 1× Assay Buffer: Per 10 mL of 1× Assay Buffer, combine 50 mM Tris-HCl, pH 8 (9958 uL), 1 M MgCl2 (20 uL), 2 M DTT (20 uL), and 10% Tween-20 (2 uL) to provide a final concentration of 50 mM Tris-HCl, pH 8, 2 mM MgCl2, 4 mM DTT, 0.002% Tween-20. • 3. 2× Enzyme Solution: Per 10 mL of 2× Enzyme Solution, combine 1× Assay Buffer and PRC2 complex to provide a final enzyme concentration of 10 nM. • 4. SPA Bead Suspension: Per 1 mL of SPA Bead Suspension, combine PS-PEI coated LEADSeeker beads (40 mg) and ddH2O (1 mL) to provide a final concentration of 40 mg/mL. • 5. 2× Substrate Solution: Per 10 mL of 2× Substrate Solution, combine 1× Assay Buffer (9728.55 uL), 800 ug/mL mononucleosomes (125 uL), 1 mM cold SAM (4 uL), and 7.02 uM 3H-SAM (142.45 uL; 0.55 mCi/mL) to provide a final concentration of 5 ug/mL nucleosomes, 0.2 uM cold SAM, and 0.05 uM 3H-SAM. • 6. 2.67× Quench/Bead Mixture: Per 10 mL of 2.67× Quench/Bead Mixture, combine ddH2O (9358 uL), 10 mM cold SAM (267 uL), 40 mg/mL Bead Suspension (375 uL) to provide a final concentration of 100 uM cold SAM and 0.5 mg/mL SPA beads. Part C. Assay Reaction in 384-well Grenier Bio-One Plates Compound Addition • 1. Dispense […] of 100× Compound to test wells (as noted above). • 2. Dispense […] of 100% DMSO to columns 6 & 18 for high and low controls, respectively. Assay • 1. Dispense 5 uL/well of 1× Assay Buffer to column 18 (low control reactions). • 2. Dispense 5 uL/well of 2× Enzyme Solution to columns 1-17, 19-24. • 3. Spin assay plates for ˜1 minute at 500 rpm. • 4. Stack the assay plates, covering the top plate. • 5. Incubate the compound/DMSO with the enzyme for 30 minutes at room temperature. • 6. Dispense 5 uL/well of 2× Substrate Solution to columns 1-24. • 7. Spin assay plates for ˜1 minute at 500 rpm. • 8. Stack the assay plates, covering the top plate. • 9. Incubate the assay plates at room temperature for 1 hour. Quench/Bead Addition • 1. Dispense 5 uL/well of the 3× Quench/Bead Mixture to columns 1-24. • 2. Seal the top of each assay plate with adhesive TopSeal. • 3. Spin assay plates for ˜1 minute at 500 rpm. • 4. Equilibrate the plates for >20 min. Read Plates • 1. Read the assay plates on the Viewlux Plate Reader utilizing the 613 nm emission filter with a 300 s read time. Reagent addition can be done manually or with automated liquid handler. *The final DMSO concentration in this assay is 1%. *The positive control is in column 6; negative control is in column 18. *Final starting concentration of compounds is 100 μM. Part D. Data Analysis
Percent inhibition was calculated relative to the DMSO control for each compound concentration and the resulting values were fit using standard IC50 fitting parameters within the ABASE data fitting software package.

T1 sequence (Q15910 whole entry): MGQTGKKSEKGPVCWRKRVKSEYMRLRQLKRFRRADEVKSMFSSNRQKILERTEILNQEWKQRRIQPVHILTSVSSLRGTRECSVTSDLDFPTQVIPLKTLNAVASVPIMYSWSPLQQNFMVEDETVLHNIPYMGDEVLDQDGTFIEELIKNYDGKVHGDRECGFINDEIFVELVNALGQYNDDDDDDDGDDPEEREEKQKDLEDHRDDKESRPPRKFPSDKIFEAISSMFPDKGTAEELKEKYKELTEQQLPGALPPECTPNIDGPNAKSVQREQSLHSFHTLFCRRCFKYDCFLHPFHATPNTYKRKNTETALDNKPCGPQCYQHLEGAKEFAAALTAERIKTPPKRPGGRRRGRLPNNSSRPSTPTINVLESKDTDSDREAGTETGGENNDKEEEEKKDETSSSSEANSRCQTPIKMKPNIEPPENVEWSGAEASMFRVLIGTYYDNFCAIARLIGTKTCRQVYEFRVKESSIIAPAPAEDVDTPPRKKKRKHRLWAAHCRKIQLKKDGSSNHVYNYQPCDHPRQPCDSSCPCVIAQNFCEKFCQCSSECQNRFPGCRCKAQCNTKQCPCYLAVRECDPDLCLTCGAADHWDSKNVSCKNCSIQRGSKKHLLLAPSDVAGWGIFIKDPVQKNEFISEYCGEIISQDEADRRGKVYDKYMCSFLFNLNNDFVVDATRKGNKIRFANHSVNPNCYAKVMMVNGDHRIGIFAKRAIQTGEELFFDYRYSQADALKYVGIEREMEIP
T1 sequence (O75530 whole entry partner): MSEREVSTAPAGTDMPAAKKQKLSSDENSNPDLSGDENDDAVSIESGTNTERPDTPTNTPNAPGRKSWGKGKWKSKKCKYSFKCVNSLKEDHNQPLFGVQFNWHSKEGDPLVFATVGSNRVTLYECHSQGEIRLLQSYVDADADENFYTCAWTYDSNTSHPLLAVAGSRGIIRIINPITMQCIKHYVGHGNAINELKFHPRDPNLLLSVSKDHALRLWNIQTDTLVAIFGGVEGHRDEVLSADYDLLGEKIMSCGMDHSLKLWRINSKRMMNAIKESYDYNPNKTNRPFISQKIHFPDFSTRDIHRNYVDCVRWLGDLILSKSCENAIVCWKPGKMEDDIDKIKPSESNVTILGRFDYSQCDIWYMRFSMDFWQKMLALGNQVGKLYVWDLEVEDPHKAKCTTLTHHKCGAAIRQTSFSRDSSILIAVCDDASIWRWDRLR
T1 sequence (Q15022 whole entry partner): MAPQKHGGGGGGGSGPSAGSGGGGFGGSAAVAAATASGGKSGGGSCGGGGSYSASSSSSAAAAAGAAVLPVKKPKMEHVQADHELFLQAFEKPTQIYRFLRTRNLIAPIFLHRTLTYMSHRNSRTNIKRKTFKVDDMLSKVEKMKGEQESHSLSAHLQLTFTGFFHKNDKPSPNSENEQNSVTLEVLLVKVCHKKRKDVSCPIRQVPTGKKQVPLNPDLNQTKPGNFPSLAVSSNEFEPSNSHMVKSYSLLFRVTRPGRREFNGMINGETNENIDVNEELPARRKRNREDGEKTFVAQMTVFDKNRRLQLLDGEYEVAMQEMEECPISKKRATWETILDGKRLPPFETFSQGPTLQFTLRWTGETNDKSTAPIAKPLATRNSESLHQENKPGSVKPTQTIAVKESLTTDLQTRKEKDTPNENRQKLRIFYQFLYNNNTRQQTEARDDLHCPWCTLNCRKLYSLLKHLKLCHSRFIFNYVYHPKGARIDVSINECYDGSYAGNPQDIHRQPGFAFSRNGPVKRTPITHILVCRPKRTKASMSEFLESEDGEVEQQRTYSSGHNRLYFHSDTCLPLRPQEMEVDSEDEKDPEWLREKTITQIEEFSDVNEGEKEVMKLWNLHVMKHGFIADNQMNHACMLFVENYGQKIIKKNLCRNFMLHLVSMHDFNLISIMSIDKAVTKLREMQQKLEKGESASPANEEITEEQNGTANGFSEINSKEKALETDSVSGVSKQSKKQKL
T1 sequence (Q09028 whole entry partner): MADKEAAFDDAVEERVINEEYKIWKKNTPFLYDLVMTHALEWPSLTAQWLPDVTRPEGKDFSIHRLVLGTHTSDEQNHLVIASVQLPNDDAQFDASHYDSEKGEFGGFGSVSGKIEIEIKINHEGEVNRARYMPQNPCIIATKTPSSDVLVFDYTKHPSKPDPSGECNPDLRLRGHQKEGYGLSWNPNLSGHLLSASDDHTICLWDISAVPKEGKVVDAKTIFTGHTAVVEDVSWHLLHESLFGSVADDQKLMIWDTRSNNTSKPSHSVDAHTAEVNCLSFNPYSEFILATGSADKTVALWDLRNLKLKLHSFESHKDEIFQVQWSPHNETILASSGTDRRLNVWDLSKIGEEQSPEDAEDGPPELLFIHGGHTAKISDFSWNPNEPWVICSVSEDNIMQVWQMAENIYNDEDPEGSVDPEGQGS
T1 sequence (Q6ZN18 whole entry partner): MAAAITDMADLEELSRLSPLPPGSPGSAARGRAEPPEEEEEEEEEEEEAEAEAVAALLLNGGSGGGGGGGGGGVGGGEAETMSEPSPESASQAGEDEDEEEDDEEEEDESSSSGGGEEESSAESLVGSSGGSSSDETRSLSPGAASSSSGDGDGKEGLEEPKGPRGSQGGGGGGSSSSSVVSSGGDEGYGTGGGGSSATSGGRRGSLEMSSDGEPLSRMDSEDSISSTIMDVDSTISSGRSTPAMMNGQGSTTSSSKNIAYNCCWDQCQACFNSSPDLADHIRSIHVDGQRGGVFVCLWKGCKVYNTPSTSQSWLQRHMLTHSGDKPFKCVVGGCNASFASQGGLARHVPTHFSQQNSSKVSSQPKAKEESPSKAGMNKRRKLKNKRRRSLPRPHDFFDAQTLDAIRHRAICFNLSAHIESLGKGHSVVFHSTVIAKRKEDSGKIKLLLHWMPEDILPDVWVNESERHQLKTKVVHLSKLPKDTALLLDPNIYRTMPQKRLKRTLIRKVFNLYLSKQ

IC50	Structure (SMILES)
5 nM	CCCc1cc(C)[nH]c(=O)c1CNC(=O)c1cc(-c2ccc(N3CCN(C)CC3)nc2)cc2c1cnn2C(C)C [Example 24, 1-(1-methylethyl)-N-[(6-methyl-2-oxo-4-propyl-1,2-dihydro-3-pyridinyl)methyl]-6-[6-(4-methyl-1-piperazinyl)-3-pyridinyl]-1H-indazole-4-carboxamide]
20 nM	CCCc1cc(C)[nH]c(=O)c1CNC(=O)c1cc(-c2ccsc2)cc2c1cnn2C(C)C [Example 31, N-((1,2-dihydro-6-methyl-2-oxo-4-propylpyridin-3-yl)methyl)-1-isopropyl-6-(thiophen-3-yl)-1H-indazole-4-carboxamide]

The next lines start with the compound.

Structure (SMILES)	IC50
CCCc1cc(C)[nH]c(=O)c1CNC(=O)c1cc(-c2cccnc2C)cc2c1cnn2C(C)C [Example 25, 1-(1-methylethyl)-N-[(6-methyl-2-oxo-4-propyl-1,2-dihydro-3-pyridinyl)methyl]-6-(2-methyl-3-pyridinyl)-1H-indazole-4-carboxamide]	13 nM
Cc1cc(C)c(CNC(=O)c2cc(-c3ccc(N(C)C)nc3)cc3c2cnn3C(C)C)c(=O)[nH]1 [Example 27, 6-[6-(dimethylamino)-3-pyridinyl]-N-[(4,6-dimethyl-2-oxo-1,2-dihydro-3-pyridinyl)methyl]-1-(1-methylethyl)-1H-indazole-4-carboxamide]	32 nM
Cc1cc(C)c(CNC(=O)c2cc(-c3cccc(CN(C)C)c3)cc3c2cnn3C(C)C)c(=O)[nH]1 [Example 29, 6-{3-[(dimethylamino)methyl]phenyl}-N-[(4,6-dimethyl-2-oxo-1,2-dihydro-3-pyridinyl)methyl]-1-(1-methylethyl)-1H-indazole-4-carboxamide]	40 nM
CCCc1cc(C)[nH]c(=O)c1CNC(=O)c1cc(-c2ccc(CN(C)C)cc2)cc2c1cnn2C(C)C [Example 33, 6-{4-[(dimethylamino)methyl]phenyl}-1-(1-methylethyl)-N-[(6-methyl-2-oxo-4-propyl-1,2-dihydro-3-pyridinyl)methyl]-1H-indazole-4-carboxamide hydrochloride salt]	5 nM
